The values that follow come from patent US7998978B2 (Pfizer Inc., priority 2006, dated 2011).

A value given as a limit tells only on which side of the number the result lay.

One may read the inhibition as the relative decrease from the control value, in per cent. Broadly, the Ki is the dissociation constant of the complex between target and ligand, obtained from inhibition or displacement.

The target of the first test is T1, JNK1α1 (Homo sapiens, UniProt P45983).
T1 construct: catalytic domain containing amino acids 1-364 and N-terminal hexahistidine tag; hexahistidine (His6) (N); made in house; host or cells: E. coli BL21 (DE3)
T1 sequence (P45983 1-364): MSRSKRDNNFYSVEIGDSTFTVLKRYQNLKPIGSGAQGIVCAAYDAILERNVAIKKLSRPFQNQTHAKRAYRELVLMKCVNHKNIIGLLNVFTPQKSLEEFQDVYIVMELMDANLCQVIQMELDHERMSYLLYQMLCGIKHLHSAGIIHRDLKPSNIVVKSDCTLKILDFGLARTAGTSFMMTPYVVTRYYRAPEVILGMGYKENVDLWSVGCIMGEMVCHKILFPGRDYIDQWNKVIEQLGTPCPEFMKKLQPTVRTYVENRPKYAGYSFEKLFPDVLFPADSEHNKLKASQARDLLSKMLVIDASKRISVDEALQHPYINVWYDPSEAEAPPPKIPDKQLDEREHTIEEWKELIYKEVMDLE
The test is described as follows: Coupled spectrophotometric (PK/LDH) JNK1α1 assay: % inhibition and Ki determination. The format is biochemical. The following applies: @1 uM; read-out: % Inhibition JNK-1. Put shortly: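 Initial rates were taken from the absorbance decrease at 340 nm at 30° C. Ki was fitted with a tight-binding model over 11 concentrations (top 100 μM); single-point inhibition was tested at 1 or 10 μM.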
As for `O=C(NCc1nncn1C1CCCCC1)c1cccc2cnc(N[C@H]3CC[C@H](O)CC3)nc12` [Example 497, N-[(4-cyclohexyl-4H-1,2,4-triazol-3-yl)methyl]-2-[(trans-4-hydroxycyclohexyl)amino]quinazoline-8-carboxamide], the inhibition at 1 µM is 13%.
For `CC1CN(CCOc2cccc3cnc(N[C@H]4CC[C@H](O)CC4)nc23)CC(C)O1` (stereo partly drawn) [Example 267, trans-4-({8-[2-(2,6-dimethylmorpholin-4-yl)ethoxy]quinazolin-2-yl}amino)cyclohexanol], the inhibition at 1 µM was determined as 18%.
Same read-out and setting: for `O=C1CC[C@H](COc2ccc3cnc(N[C@H]4CC[C@H](O)CC4)nc3c2)N1` [Example 284, (5R)-5-[({2-[(trans-4-hydroxycyclohexyl)amino]quinazolin-7-yl}oxy)methyl]pyrrolidin-2-one] the value was 53%; for `O=C(N[C@H](CO)CC1CCCCC1)c1ccc2cnc(NC3CCC3)nc2c1` [Example 428, 2-(cyclobutylamino)-N-[(1S)-2-cyclohexyl-1-(hydroxymethyl)ethyl]quinazoline-7-carboxamide], 17%; for `O=C(NCc1nc(-c2ccccc2)no1)c1cccc2cnc(N[C@H]3CC[C@H](O)CC3)nc12` [Example 513, 2-[(trans-4-hydroxycyclohexyl)amino]-N-[(3-phenyl-1,2,4-oxadiazol-5-yl)methyl]quinazoline-8-carboxamide], 21%.
As to `CC(C)(C)OCCOc1cccc2cnc(N[C@H]3CC[C@H](O)CC3)nc12` [Example 258, trans-4-{[8-(2-tert-butoxyethoxy)quinazolin-2-yl]amino}cyclohexanol], the inhibition at 1 µM came out at 30%.
On the same count and under the same terms, for `O=C(NCCc1nc2ccccc2[nH]1)c1cccc2cnc(N[C@H]3CC[C@H](O)CC3)nc12` [Example 480, N-[2-(1H-benzimidazol-2-yl)ethyl]-2-[(trans-4-hydroxycyclohexyl)amino]quinazoline-8-carboxamide] the value was 11%; for `CCn1nc(C)c(CNC(=O)c2cccc3cnc(N[C@H]4CC[C@H](O)CC4)nc23)c1C` [Example 496, N-[(1-ethyl-3,5-dimethyl-1H-pyrazol-4-yl)methyl]-2-[(trans-4-hydroxycyclohexyl)amino]quinazoline-8-carboxamide], 41%.
On the same count and under the same terms, for `O=C1NCCN1CCOc1cccc2cnc(N[C@H]3CC[C@H](O)CC3)nc12` [Example 260, 1-[2-({2-[(trans-4-hydroxycyclohexyl)amino]quinazolin-8-yl}oxy)ethyl]imidazolidin-2-one] the value was 34%.

The test is the same for the next values; noted with them: @10 uM; read-out: % Inhibition JNK-1.
In the case of `Cc1ccn2cc(CCNC(=O)c3cccc4cnc(N[C@H]5CC[C@H](O)CC5)nc34)nc2n1` [Example 524, 2-[(trans-4-hydroxycyclohexyl)amino]-N-[2-(7-methylimidazo[1,2-a]pyrimidin-2-yl)ethyl]quinazoline-8-carboxamide], the inhibition at 10 µM amounted to 47%.
For the molecule `Cc1cc(C)nc(NC(=O)c2cccc3cnc(N[C@H]4CC[C@H](O)CC4)nc23)n1` [Example 313, N-(4,6-dimethylpyrimidin-2-yl)-2-[(trans-4-hydroxycyclohexyl)amino]quinazoline-8-carboxamide], the inhibition at 10 µM came out at 71%.
On the same count and under the same terms, as for `CN1CC(CNC(=O)c2cccc3cnc(N[C@H]4CC[C@H](O)CC4)nc23)OCC1=O` (stereo partly drawn) [Example 525, 2-[(trans-4-hydroxycyclohexyl)amino]-N-[(4-methyl-5-oxomorpholin-2-yl)methyl]quinazoline-8-carboxamide], the figure is 41%.
Still for that read-out and setting: for `O=C(Nc1cccnc1N1CCOCC1)c1cccc2cnc(N[C@H]3CC[C@H](O)CC3)nc12` [Example 324, 2-[(trans-4-hydroxycyclohexyl)amino]-N-(2-morpholin-4-ylpyridin-3-yl)quinazoline-8-carboxamide] the value was 26%.

The test is the same for the next values; noted with them: JNK-1.
`Cc1cc(CNc2cc3cc(-c4cn[nH]c4)ccc3cn2)ccn1` [Example 227, N-[(2-methylpyridin-4-yl)methyl]-6-(1H-pyrazol-4-yl)isoquinolin-3-amine] yielded a Ki of 6620 nM.
On the same count and under the same terms, as for `CN(C)C(=O)c1ccc2cnc(N[C@H]3CC[C@H](O)CC3)nc2c1` [Example 59, 2-[(trans-4-hydroxycyclohexyl)amino]-N,N-dimethylquinazoline-7-carboxamide], the figure is 4340 nM; as for `O=C(N[C@@H]1CCCC[C@@H]1CO)c1cccc2cnc(N[C@H]3CC[C@H](O)CC3)nc12` [Example 446, 2-[(trans-4-hydroxycyclohexyl)amino]-N-[(1R,2S)-2-(hydroxymethyl)cyclohexyl]quinazoline-8-carboxamide], 112 nM; as for `Oc1ccc2cnc(N[C@H]3CC[C@H](O)CC3)nc2c1` [Example 146, 2-[(trans-4-hydroxycyclohexyl)amino]quinazolin-7-ol], 178 nM.
Same read-out and setting: as for `COc1ccc2c(c1)CCC2C(=O)Nc1cc2cc(-c3cn[nH]c3)ccc2cn1` (stereo not shown) [Example 47, 5-methoxy-N-[6-(1H-pyrazol-4-yl)isoquinolin-3-yl]indane-1-carboxamide], the figure is over 50 nM; as for `CCn1cc(CNC(=O)c2ccc3cnc(N[C@H]4CC[C@H](O)CC4)nc3c2)cn1` [Example 356, N-[(1-ethyl-1H-pyrazol-4-yl)methyl]-2-[(trans-4-hydroxycyclohexyl)amino]quinazoline-7-carboxamide], 1480 nM.
On the same count and under the same terms, as for `CC(=O)N1CCC(NC(=O)c2ccc3cnc(N[C@H]4CC[C@H](O)CC4)nc3c2)CC1` [Example 365, N-(1-acetylpiperidin-4-yl)-2-[(trans-4-hydroxycyclohexyl)amino]quinazoline-7-carboxamide], the figure is 2060 nM; as for `O=C(N[C@H](CO)c1ccccc1)c1ccc2cnc(NC3CCCCC3)nc2c1` [Example 373, 2-(cyclohexylamino)-N-[(1S)-2-hydroxy-1-phenylethyl]quinazoline-7-carboxamide], 74 nM.
`Cc1cccc(NC(=O)c2ccc3cnc(N[C@H]4CC[C@H](O)CC4)nc3c2)n1` [Example 369, 2-[(trans-4-hydroxycyclohexyl)amino]-N-(6-methylpyridin-2-yl)quinazoline-7-carboxamide] had a Ki of 2310 nM. Against the preceding molecule, the Ki is about 31-fold higher.
Still for that read-out and setting: as for `O=C(Nc1ccccn1)c1ccc2cnc(N[C@H]3CC[C@H](O)CC3)nc2c1` [Example 330, 2-[(trans-4-hydroxycyclohexyl)amino]-N-pyridin-2-ylquinazoline-7-carboxamide], the figure is 354 nM.
On the same count and under the same terms, for `COc1ccc2c(c1OC)CC[C@H]2C(=O)Nc1cc2cc(-c3cn[nH]c3)ccc2cn1` [Example 23, (R)-4,5-dimethoxy-N-[6-(1H-pyrazol-4-yl)isoquinolin-3-yl]indane-1-carboxamide] the value was 2 nM.
The molecule `O=C(N[C@H](CO)c1ccccc1)c1ccc2cnc(N[C@H]3CC[C@H](O)CC3)nc2c1` [Example 372, 2-[(trans-4-hydroxycyclohexyl)amino]-N-[(1S)-2-hydroxy-1-phenylethyl]quinazoline-7-carboxamide] registered an inhibition constant (Ki) of 73.5 nM.
Same read-out and setting: as for `CC[C@H](C)[C@@H](CO)NC(=O)c1ccc2cnc(NC(C)C)nc2c1` [Example 409, N-[(1S,2S)-1-(hydroxymethyl)-2-methylbutyl]-2-(isopropylamino)quinazoline-7-carboxamide], the figure is 772 nM; as for `CC[C@@H](NC(=O)c1ccc2cnc(N[C@H]3CC[C@H](O)CC3)nc2c1)c1ccccc1` [Example 93, 2-[(trans-4-hydroxycyclohexyl)amino]-N-[(1R)-1-phenylpropyl]quinazoline-7-carboxamide], 31 nM; as for `CC(C)(CN1CCOCC1)NC(=O)c1ccc2cnc(N[C@H]3CC[C@H](O)CC3)nc2c1` [Example 89, N-(1,1-dimethyl-2-morpholin-4-ylethyl)-2-[(trans-4-hydroxycyclohexyl)amino]quinazoline-7-carboxamide], 269 nM.
On the same count and under the same terms, for `O=C(NCc1ccccc1)c1ccc2cnc(N[C@H]3CC[C@H](O)CC3)nc2c1` [Example 81, N-benzyl-2-[(trans-4-hydroxycyclohexyl)amino]quinazoline-7-carboxamide] the value was 63 nM; for `c1cnc(N2CCC(Nc3cc4cc(-c5cn[nH]c5)ccc4cn3)CC2)nc1` [Example 216, 6-(1H-pyrazol-4-yl)-N-(1-pyrimidin-2-ylpiperidin-4-yl)isoquinolin-3-amine], 480 nM.
Still for that read-out and setting: for `COc1ccc2c(c1OC)CC[C@@H]2C(=O)Nc1cc2cc(-c3cn[nH]c3)ccc2cn1` [Example 22, (S)-4,5-dimethoxy-N-[6-(1H-pyrazol-4-yl)isoquinolin-3-yl]indane-1-carboxamide] the value was over 50 nM; for `CCCNC(=O)c1cccc2cnc(N[C@H]3CC[C@H](O)CC3)nc12` [Example 461, 2-[(trans-4-hydroxycyclohexyl)amino]-N-propylquinazoline-8-carboxamide], 451 nM; for `O=C(Cn1cc(-c2ccccn2)nn1)Nc1cc2cc(-c3cn[nH]c3)ccc2cn1` [Example 30, N-[6-(1H-pyrazol-4-yl)isoquinolin-3-yl]-2-(4-pyridin-2-yl-1H-1,2,3-triazol-1-yl)acetamide], 18 nM.
As to `O=C(Nc1cc2cc(-c3cn[nH]c3)ccc2cn1)C1COc2ccccc2C1` (stereo not shown) [Example 38, N-[6-(1H-pyrazol-4-yl)isoquinolin-3-yl]chromane-3-carboxamide], the affinity corresponds to a Ki of 14 nM.
Still for that read-out and setting: for `CN(C)C(=O)CCC(=O)Nc1cc2cc(-c3cn[nH]c3)ccc2cn1` [Example 40, N,N-dimethyl-N′-[6-(1H-pyrazol-4-yl)isoquinolin-3-yl]succinamide] the value was 8 nM; for `Cc1ccccc1-c1cccc2cnc(N[C@H]3CC[C@H](O)CC3)nc12` [Example 200, trans-4-{[8-(2-methylphenyl)quinazolin-2-yl]amino} cyclohexanol], 186 nM; for `O[C@H]1CC[C@H](Nc2ncc3ccc(Oc4ccccc4)cc3n2)CC1` [Example 161, trans-4-[(7-phenoxyquinazolin-2-yl)amino]cyclohexanol], 111 nM.
